From the NIST ThermoML archive (doi:10.1021/acs.jced.5b00934)

Conditions: Liquid, Vibrating tube method

CC(C)(C)O [2-methylpropan-2-ol]
Conditions | mass density [kg/m3]
323.15 K, 502 kPa | 754.4
323.15 K, 901 kPa | 754.9
323.15 K, 1004 kPa | 755
323.15 K, 2003 kPa | 756.1
323.15 K, 3002 kPa | 757.2
323.15 K, 5004 kPa | 759.4
323.15 K, 7002 kPa | 761.5
323.15 K, 9002 kPa | 763.5
323.15 K, 10002 kPa | 764.5
323.15 K, 12000 kPa | 766.5
323.15 K, 14999 kPa | 769.3
323.15 K, 17998 kPa | 772.1
323.15 K, 20000 kPa | 773.9
323.15 K, 22000 kPa | 775.7
323.15 K, 25000 kPa | 778.2
323.15 K, 27995 kPa | 780.7
323.15 K, 30002 kPa | 782.4
323.15 K, 32000 kPa | 784
323.15 K, 33000 kPa | 784.7
323.15 K, 33001 kPa | 784.7
323.15 K, 34000 kPa | 785.5
323.15 K, 35004 kPa | 786.2
323.15 K, 38000 kPa | 788.5
323.15 K, 39998 kPa | 790
323.15 K, 41998 kPa | 791.5
323.15 K, 45000 kPa | 793.6
323.15 K, 47996 kPa | 795.7
323.15 K, 50000 kPa | 797.1
323.15 K, 51998 kPa | 798.4
323.15 K, 55006 kPa | 800.5
323.15 K, 57995 kPa | 802.4
323.15 K, 60000 kPa | 803.7
328.15 K, 101 kPa | 748.4
328.15 K, 298 kPa | 748.7
328.15 K, 499 kPa | 748.9
328.15 K, 898 kPa | 749.4
328.15 K, 1005 kPa | 749.5
328.15 K, 2001 kPa | 750.7
328.15 K, 3001 kPa | 751.9
328.15 K, 5001 kPa | 754.1
328.15 K, 7001 kPa | 756.3
328.15 K, 9004 kPa | 758.5
328.15 K, 9999 kPa | 759.5
328.15 K, 11999 kPa | 761.6
328.15 K, 15004 kPa | 764.5
328.15 K, 18006 kPa | 767.4
328.15 K, 19995 kPa | 769.2
328.15 K, 22000 kPa | 771
328.15 K, 24996 kPa | 773.6
328.15 K, 27998 kPa | 776.2
328.15 K, 30005 kPa | 777.9
328.15 K, 32005 kPa | 779.5
328.15 K, 33023 kPa | 780.3
328.15 K, 33038 kPa | 780.4
328.15 K, 34013 kPa | 781.1
328.15 K, 35004 kPa | 781.9
328.15 K, 38002 kPa | 784.3
328.15 K, 40024 kPa | 785.8
328.15 K, 41999 kPa | 787.2
328.15 K, 45002 kPa | 789.4
328.15 K, 47997 kPa | 791.6
328.15 K, 49992 kPa | 793
328.15 K, 55000 kPa | 796.4
328.15 K, 57995 kPa | 798.3
328.15 K, 60003 kPa | 799.6
328.16 K, 51996 kPa | 794.3
333.15 K, 103 kPa | 742.8
333.15 K, 307 kPa | 743.1
333.15 K, 502 kPa | 743.3
333.15 K, 915 kPa | 743.8
333.15 K, 1007 kPa | 744
333.15 K, 2013 kPa | 745.2
333.15 K, 3006 kPa | 746.4
333.15 K, 5002 kPa | 748.8
333.15 K, 7005 kPa | 751.1
333.15 K, 9001 kPa | 753.3
333.15 K, 9999 kPa | 754.3
333.15 K, 12003 kPa | 756.5
333.15 K, 15000 kPa | 759.6
333.15 K, 17995 kPa | 762.5
333.15 K, 19997 kPa | 764.4
333.15 K, 21996 kPa | 766.2
333.15 K, 24994 kPa | 768.9
333.15 K, 27993 kPa | 771.6
333.15 K, 30003 kPa | 773.3
333.15 K, 32004 kPa | 775
333.15 K, 32850 kPa | 775.7
333.15 K, 32871 kPa | 775.7
333.15 K, 34000 kPa | 776.6
333.15 K, 34990 kPa | 777.4
333.15 K, 38004 kPa | 779.8
333.15 K, 39997 kPa | 781.4
333.15 K, 41998 kPa | 782.9
333.15 K, 44909 kPa | 785.1
333.15 K, 48119 kPa | 787.4
